Reference: publication PMC2834671, “Differential activity of innate defense antimicrobial peptides against Nocardia species” (BMC Microbiology, 2010)
Positions of bridges follow the written chain, without caps; N, C: chain ends. Residues, ends and D or L forms follow the SMILES beside them. No end group written: not given here.

Assays:
N. farcinica ATCC 3318 = experiment: Colony forming unit (CFU) assay against N. farcinica; assay type: cell-based, Nocardia farcinica; details: for LD90: lowest concentration leading to 90% reduction of CFU, 1 × 10^7 CFU/ml in 10 mM sodium phosphate buffer pH 7.4 + 1% MHB, means of at least four (levofloxacin, HNP 1-3, LL-37, hBD-3) or two (indolicidin, LAP, TAP) independent experiments
Description: (§1) Four strains of the genus Nocardia were investigated: Nocardia farcinica (ATCC 3318), Nocardia nova (ATCC 33726), Nocardia asteroides (ATCC 19247) and Nocardia brasiliensis (ATCC 19296). Strains were grown on Columbia blood agar for at least 72 hours at 37°C. Then 30 ml of Mueller-Hinton-broth (MHB) supplemented with 1% Tween 80 (Serva, Heidelberg, Germany) was inoculated with one loop of bacteria scraped off the agar plates. MHB was incubated in a shake incubator (220 rpm at 37°C). 10 ml of the culture was transferred to a 50 ml tube which contained 1 mm glass beads (BioSpec Products, Bartlesville, USA). After vortexing for 10-15 seconds a homogenous suspension could be gained. A few millilitres of the suspension were used to inoculate another 50 ml of MHB (also supplemented with 1% Tween 80). Cultures were incubated until mid-logarithmic phase was reached. Incubation times were different for each Nocardia species (N. farcinica 12 h, N. nova 24 h, N. asteroides 16 h, N. brasiliensis 72 h).
(§2) A colony forming unit (CFU) assay was established and performed to test AMP susceptibility. Mid-logarithmic growth phase cultures were washed twice in 10 mM sodium phosphate buffer (ph 7.4). A standard inoculum of 1 × 10^7CFU/ml in 10 mM sodium phosphate buffer supplemented with 1% MHB was prepared. 80 μl of the standard inoculum were incubated with 20 μl of the respective concentrations of the antimicrobial agents in the shake incubator at 37°C for 12 h (N. farcinica) to 16 h (N. nova, N. asteroides and N. brasiliensis). Incubation was carried out in 2 ml tubes (Eppendorf, Hamburg, Germany) which were occluded by LidBacs (Eppendorf, Hamburg, Germany) to avoid contamination and provide constant aerobic conditions. After incubation serial dilutions were plated on Mueller-Hinton agar plates and visible colonies were counted after 48-72 hours of incubation at 37°C. Killing was expressed in percentage of bacteria that were killed by incubation with respective peptide concentrations compared to incubation with solvent of the antibacterial substance (0,01% acetic acid or water). LD90 denotes the lowest peptide concentration leading to a =90% reduction of CFU counts. […] Killing activity (CFU counts after incubation with solvent vs. CFU counts after incubation with highest concentration of AMPs or levofloxacin) was analysed by Student's t-test. A p-value < 0.05 was considered significant.

N. nova ATCC 33726 = experiment: Colony forming unit (CFU) assay against N. nova; assay type: cell-based, Nocardia nova; details: for killing/CFU reduction in percent ± SD: ATCC 33726, 16 h; for antinocardial activity (in words): CFU assay; for antinocardial activity (in words) / LD90: 16 h; for LD90: lowest concentration leading to 90% reduction of CFU, 1 × 10^7 CFU/ml in 10 mM sodium phosphate buffer pH 7.4 + 1% MHB, 37°C, means of at least four or two (indolicidin) independent experiments
Description: as §1, §2

N. asteroides ATCC 19247 = experiment: Colony forming unit (CFU) assay against N. asteroides; assay type: cell-based, Nocardia asteroides; details: for antinocardial activity (in words): CFU assay; for LD90: lowest concentration leading to 90% reduction of CFU, 1 × 10^7 CFU/ml in 10 mM sodium phosphate buffer pH 7.4 + 1% MHB, means of at least four or two (indolicidin) independent experiments
Description: as §1, §2

[1] = test system: N. brasiliensis ATCC 19296; experiment: Colony forming unit (CFU) assay against N. brasiliensis; assay type: cell-based, Nocardia brasiliensis; details: for antinocardial activity (in words) / growth of N. brasiliensis after incubation (in words): CFU assay; for antinocardial activity (in words): concentrations up to 64 μg/ml; for growth of N. brasiliensis after incubation (in words): data not shown; for LD90: lowest concentration leading to 90% reduction of CFU, 1 × 10^7 CFU/ml in 10 mM sodium phosphate buffer pH 7.4 + 1% MHB, means of at least four or two (indolicidin, LAP, TAP) independent experiments
Description: as §1, §2

[2] = at the LD90 concentration, 12 h, 37°C, mean ± SD of at least four or two (indolicidin, LAP, TAP) independent experiments
[3] = at the LD90 concentration, 16 h, 37°C, mean ± SD of at least four or two (indolicidin) independent experiments

GIINTLQKYYCRVRGGRCAVLSCLPKEEQIGKCSTRGRKCCRRKK (disulfide 11-40, 18-33, 23-41 (inferred)) [hBD-3]
killing/CFU reduction in percent ± SD (N. farcinica ATCC 3318; ATCC 3318, 12 h): 92.5 ± 5.3% | LD90 (N. farcinica ATCC 3318; 37°C, 12 h): 16 µg/mL | killing/CFU reduction in percent ± SD (N. nova ATCC 33726): 95.2 ± 1.7% | antinocardial activity (in words) (N. nova ATCC 33726): more potent against N. nova than levofloxacin | LD90 (N. nova ATCC 33726): 16 µg/mL | antinocardial activity (in words) (N. asteroides ATCC 19247; 16 h): did not show antinocardial activity | LD90 (N. asteroides ATCC 19247; 37°C, 16 h): >64 µg/mL | antinocardial activity (in words) ([1]; 16 h): resistant | growth of N. brasiliensis after incubation (in words) ([1]; 16 h): stronger growth | LD90 ([1]; 37°C, 16 h): >64 µg/mL

CC[C@H](C)[C@H](N)C(=O)N[C@@H](CC(C)C)C(=O)N1CCC[C@H]1C(=O)N[C@@H](Cc1c[nH]c2ccccc12)C(=O)N[C@@H](CCCCN)C(=O)N[C@@H](Cc1c[nH]c2ccccc12)C(=O)N1CCC[C@H]1C(=O)N[C@@H](Cc1c[nH]c2ccccc12)C(=O)N[C@@H](Cc1c[nH]c2ccccc12)C(=O)N1CCC[C@H]1C(=O)N[C@@H](Cc1c[nH]c2ccccc12)C(=O)N[C@@H](CCCNC(=N)N)C(=O)N[C@@H](CCCNC(=N)N)C(N)=O [indolicidin]
killing/CFU reduction in percent ± SD (N. farcinica ATCC 3318; ATCC 3318, 12 h): 96.7 ± 1.7% | LD90 (N. farcinica ATCC 3318; 37°C, 12 h): 16 µg/mL | killing/CFU reduction in percent ± SD (N. nova ATCC 33726): 90.5 ± 3.4% | LD90 (N. nova ATCC 33726): 8 µg/mL | killing/CFU reduction in percent ± SD (N. asteroides ATCC 19247; ATCC 19247, 16 h): 99.1 ± 0.6% | LD90 (N. asteroides ATCC 19247; 37°C, 16 h): 64 µg/mL | killing/CFU reduction in percent ± SD ([1]; ATCC 19296, 16 h): 92.9 ± 2.1% | LD90 ([1]; 37°C, 16 h): 64 µg/mL

CC[C@H](C)[C@H](NC(=O)[C@H](CCCCN)NC(=O)[C@H](CCC(=O)O)NC(=O)[C@H](CCCCN)NC(=O)[C@H](CO)NC(=O)[C@H](CCCCN)NC(=O)[C@H](CCCNC(=N)N)NC(=O)[C@H](Cc1ccccc1)NC(=O)[C@H](Cc1ccccc1)NC(=O)[C@H](CC(=O)O)NC(=O)CNC(=O)[C@H](CC(C)C)NC(=O)[C@@H](N)CC(C)C)C(=O)NCC(=O)N[C@@H](CCCCN)C(=O)N[C@@H](CCC(=O)O)C(=O)N[C@@H](Cc1ccccc1)C(=O)N[C@@H](CCCCN)C(=O)N[C@@H](CCCNC(=N)N)C(=O)N[C@H](C(=O)N[C@H](C(=O)N[C@@H](CCC(N)=O)C(=O)N[C@@H](CCCNC(=N)N)C(=O)N[C@H](C(=O)N[C@@H](CCCCN)C(=O)N[C@@H](CC(=O)O)C(=O)N[C@@H](Cc1ccccc1)C(=O)N[C@@H](CC(C)C)C(=O)N[C@@H](CCCNC(=N)N)C(=O)N[C@@H](CC(N)=O)C(=O)N[C@@H](CC(C)C)C(=O)N[C@H](C(=O)N1CCC[C@H]1C(=O)N[C@@H](CCCNC(=N)N)C(=O)N[C@H](C(=O)N[C@@H](CCC(=O)O)C(=O)N[C@@H](CO)C(=O)O)[C@@H](C)O)C(C)C)[C@@H](C)CC)C(C)C)[C@@H](C)CC [LL-37]
CFU reduction (N. farcinica ATCC 3318; 16 μg/ml peptide alone, single assay (Figure 2)): 68.5% | antinocardial activity (in words) (N. nova ATCC 33726): more potent against N. nova than levofloxacin | LD90 (N. nova ATCC 33726): 32 µg/mL | antinocardial activity (in words) (N. asteroides ATCC 19247; 16 h): did not show antinocardial activity | LD90 (N. asteroides ATCC 19247; 37°C, 16 h): >64 µg/mL | antinocardial activity (in words) ([1]; 16 h): resistant | growth of N. brasiliensis after incubation (in words) ([1]; 16 h): stronger growth | LD90 ([1]; 37°C, 16 h): >64 µg/mL

C[C@H]1COc2c(N3CCN(C)CC3)c(F)cc3c(=O)c(C(=O)O)cn1c23 [Levofloxacin, reference compound]
antinocardial activity (in words) (N. farcinica ATCC 3318; CFU assay, 12 h): dose-dependent activity | killing/CFU reduction in percent ± SD (N. farcinica ATCC 3318; [2]): 92.3 ± 3.8% | LD90 (N. farcinica ATCC 3318; 37°C, 12 h): 8 µg/mL | antinocardial activity (in words) (N. nova ATCC 33726): dose-dependent activity | LD90 (N. nova ATCC 33726): >32 µg/mL | antinocardial activity (in words) (N. asteroides ATCC 19247; 16 h): dose-dependent activity | killing/CFU reduction in percent ± SD (N. asteroides ATCC 19247; [3]): 92.6 ± 3.8% | LD90 (N. asteroides ATCC 19247; 37°C, 16 h): 8 µg/mL | antinocardial activity (in words) ([1]; 16 h): dose-dependent activity | killing/CFU reduction in percent ± SD [1, 3]: 96.6 ± 2.2% | LD90 ([1]; 37°C, 16 h): 32 µg/mL

LAP: bovine β-defensin lingual antimicrobial peptide, synthesized and oxidatively folded (VRNSQSCRRNKGICVPIRCPGSMRQIGTCLGAQVKCCRRK; disulfide (positions not given here); UniProt Q28880 25-64, looked up)
killing/CFU reduction in percent ± SD (N. farcinica ATCC 3318; [2]): 92.9 ± 7.1% | LD90 (N. farcinica ATCC 3318; 37°C, 12 h): 16 µg/mL | antinocardial activity (in words) ([1]; 16 h): resistant | growth of N. brasiliensis after incubation (in words) ([1]; 16 h): pronounced growth | LD90 ([1]; 37°C, 16 h): >64 µg/mL

CC[C@H](C)[C@@H]1NC(=O)CNC(=O)[C@H](CCCCN)NC(=O)[C@H](CC(N)=O)NC(=O)[C@H](CCCNC(=N)N)NC(=O)[C@H](C(C)C)NC(=O)[C@@H](NC(=O)[C@H](CO)NC(=O)[C@@H](NC(=O)[C@@H]2CCCN2C(=O)[C@@H](N)CC(N)=O)C(C)C)CSSC[C@@H]2NC(=O)[C@H](CCCCN)NC(=O)[C@H](C(C)C)NC(=O)[C@H](C)NC(=O)[C@H](CCCNC(=N)N)NC(=O)CNC(=O)[C@H](C(C)C)NC(=O)[C@@H]3CSSC[C@H](NC1=O)C(=O)N[C@@H](C(C)C)C(=O)N1CCC[C@H]1C(=O)N[C@@H]([C@@H](C)CC)C(=O)N[C@@H](CCCNC(=N)N)C(=O)N[C@@H](CSSC[C@@H](C(=O)N[C@@H](CCCNC(=N)N)C(=O)N[C@@H](CCCCN)C(=O)N[C@@H](CCCCN)C(=O)O)NC2=O)C(=O)N1CCC[C@H]1C(=O)NCC(=O)N[C@@H](CO)C(=O)N[C@@H](CCSC)C(=O)N[C@@H](CCCCN)C(=O)N[C@@H](CCC(N)=O)C(=O)N[C@@H]([C@@H](C)CC)C(=O)NCC(=O)N[C@@H]([C@@H](C)O)C(=O)N3 [TAP] (H-NPVSCVRNKGICVPIRCPGSMKQIGTCVGRAVKCCRKK-OH; disulfide 5-34, 12-27, 17-35 (inferred); N-terminus and C-terminus assumed)
killing/CFU reduction in percent ± SD (N. farcinica ATCC 3318; [2]): 94 ± 5.1% | LD90 (N. farcinica ATCC 3318; 37°C, 12 h): 32 µg/mL | antinocardial activity (in words) ([1]; 16 h): resistant | growth of N. brasiliensis after incubation (in words) ([1]; 16 h): pronounced growth
